Source: patent US20060251659A1, “Method for screening molecules that restore NOD1 activity in cells containing an NOD2 mutation that reduces or eliminates NOD1 activity” (priority 2005, published 2006)
“Also recorded” adds a separate entry of the source.

Columns and labels:
Nod2 = molecular target: T1, Nod2 (Homo sapiens, UniProt Q9HC29); experiment: Nod2-dependent NF-κB luciferase reporter activation in transfected HEK293T cells; assay type: cell-based; details: for activation of Nod2 (NF-κB-driven luciferase reporter): muramyl peptides 10 nM up to 250 nM, HEK293T cells expressing Nod2, 24 h
T1 construct: expressed in transfected cells; host or cells: HEK293T
T1 sequence (Q9HC29 whole entry): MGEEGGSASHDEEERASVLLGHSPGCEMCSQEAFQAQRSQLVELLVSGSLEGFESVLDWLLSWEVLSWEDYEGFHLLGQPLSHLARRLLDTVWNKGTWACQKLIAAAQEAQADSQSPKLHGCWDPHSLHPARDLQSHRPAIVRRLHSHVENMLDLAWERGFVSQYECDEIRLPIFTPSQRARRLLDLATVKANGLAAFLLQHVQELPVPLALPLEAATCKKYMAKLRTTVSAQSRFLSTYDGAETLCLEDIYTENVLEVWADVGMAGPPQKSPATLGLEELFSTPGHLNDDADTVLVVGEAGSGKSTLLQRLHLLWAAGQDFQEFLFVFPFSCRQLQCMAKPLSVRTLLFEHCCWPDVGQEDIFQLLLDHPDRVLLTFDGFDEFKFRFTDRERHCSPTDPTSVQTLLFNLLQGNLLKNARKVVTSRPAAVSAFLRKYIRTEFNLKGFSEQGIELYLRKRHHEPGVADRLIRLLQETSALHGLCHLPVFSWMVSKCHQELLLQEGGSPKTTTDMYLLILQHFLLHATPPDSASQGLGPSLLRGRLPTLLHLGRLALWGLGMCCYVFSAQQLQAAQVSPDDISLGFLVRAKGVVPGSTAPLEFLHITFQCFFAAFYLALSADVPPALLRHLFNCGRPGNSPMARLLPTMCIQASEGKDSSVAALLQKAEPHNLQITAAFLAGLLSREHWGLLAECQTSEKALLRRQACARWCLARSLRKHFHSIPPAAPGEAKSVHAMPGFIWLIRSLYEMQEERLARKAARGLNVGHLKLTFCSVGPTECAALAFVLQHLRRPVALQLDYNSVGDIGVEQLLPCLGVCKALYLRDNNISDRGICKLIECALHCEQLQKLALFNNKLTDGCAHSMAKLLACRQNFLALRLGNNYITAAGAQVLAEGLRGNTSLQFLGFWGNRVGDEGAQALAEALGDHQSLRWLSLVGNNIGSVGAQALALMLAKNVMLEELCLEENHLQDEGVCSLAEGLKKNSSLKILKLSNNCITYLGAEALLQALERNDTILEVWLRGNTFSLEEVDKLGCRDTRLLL
Protocol: FIG. 1. Detection of MDP-derived muramyl peptides by Nod2. A, schematic representation of the muramyl peptides used in this study. B, Human HEK293 epithelial cells were transfected with several muramyl peptides (MDP, M-TriLys, Anh-M-TriLys, M-TetraLYS and Anh-M-TetraLYS) at the following concentrations: 10 nM (white bars), 50 nM (grey bars) or 250 nM (black bars) in the presence of an expression vector for Nod2 . The activity of a NF-κB-driven luciferase reporter gene was measured, and Nod2-dependent activation of the reporter gene in the presence of muramyl peptides was reported to the one obtained without stimulation with muramyl peptides. […] Experiments were performed three times with similar results.
In search for MDP-derived muramyl peptides that could stimulate the Nod2 signaling pathway, the inventors generated several molecules differing in the length of their peptidic moiety, including M-TriLys and M-TetraLys (FIG. 1A). These molecules were then tested for their ability to activate Nod2 using co-transfection assays in HEK293T epithelial cells and measuring NF-κB activity as a read-out (FIG. 1B). […] Here, a larger range of muramyl peptide concentration was used (10 nM up to 250 nM) to allow for the identification of even weak inducers of the Nod2 pathway.
HEK293T cells were cultured in DMEM containing 10% fetal calf serum. Prior to transfection, HEK293T cells were seeded into 24 well plates at a density of 1×10^5 cells/ml as described previously (26), MDP LD was from Calbiochem and reported to be 98% pure by TLC.
The expression plasmid for Nod2 has been previously described (27). The NF-κB luciferase reporter plasmid was from Stratagene. Transfections were carried out in […] cells as previously described (26).
Studies examining the synergistic activation of NF-κB by muramyl peptides in cells over expressing Nod2 were carried out as originally described by Inohara et al. (28). Briefly, HEK293T cells were transfected overnight with 10 ng of Nod2 plus 75 ng of NF-κB luciferase reporter plasmid. At the same time, muramyl peptides were added to cell culture medium and the synergistic NF-κB-dependent luciferase activation was then measured following 24 h of co-incubation. NF-κB-dependent luciferase assays were performed in duplicate and data represent at least 3 independent experiments.

[1] = system: PBMCs from Crohn's disease patients without Nod2 mutations; experiment: Cytokine response of PBMCs from Crohn's disease patients without Nod2 mutations; assay type: cell-based, human; details: PBMCs from non-Nod2 Crohn's disease patients; 50 nM; overnight (18 hours)
Protocol: (§1) FIG. 2. Response to muramyl peptides of PBMCs from healthy donors (CTR), Crohn's disease patients without defects in Nod2 (Crohn's) or Crohn's disease patients homozygous for the frameshift mutation (Nod2 fs). IL-1β, TNF and IL-10 were measured from the cell culture medium. Intracellular IL-1α was measured from cell lysates. All muramyl peptides (all 50 nM) were added directly to the cell culture medium for 18 hours.
as §1, with “3.” for “2.”, “peptidoglycans” for “muramyl peptides”, “(Nod2fs).” for “(Nod2 fs).”, “at 1 μg/ml) and LPS (100 ng/ml)” for “50 nM)”
(§2) FIG. 5. Analysis of the synergistic activation of PBMCs by M-TriDAP plus either LPS or LTA. PBMCs from healthy donors (CTR), Crohn's disease patients without defects in Nod2 (Crohn's) or Crohn's disease patients homozygous for the frameshift mutation (Nod2 fs) were analyzed. Cells were stimulated either with M-TriDAP (MTP(DAP) on the figure), LPS or LTA alone or in combination; LPS+M-TriDAP or LTA+M-TriDAP with the agonists added simultaneously, IL-1β, TNF and IL-10 were measured from the cell culture medium. Intracellular IL-1α was measured from cell lysates, LPS (40 pg/ml), LTA (5 μg/ml) and M-TriDAP (50 nM) were added directly to the cell culture medium for 18 hours.
(§3) The six muramyl peptides characterized above (MDP, M-TriLys, M-TetraLys, anhydro-M-TriLys, anhydro-M-TetraLys and M-TriDAP) were used to stimulate PBMCs obtained from human blood. PBMCs from three groups of individuals were collected: healthy donors (CTR), Crohn's disease patients without Nod2 mutations (Crohn) and Crohn's disease patients carrying homozygous Nod2fs frameshift mutation (Nod2fs). […] IL-1β, IL-10 and TNFα were measured in the supernatant, while intracellular IL-1α was measured from cell lysates (FIG. 2). […]

[2] = system: PBMCs from healthy donors; experiment: Cytokine response of PBMCs from healthy donors (CTR); assay type: cell-based, human; details: 50 nM, overnight (18 hours)
Protocol: as §1
as §1, with “3.” for “2.”, “peptidoglycans” for “muramyl peptides”, “(Nod2fs).” for “(Nod2 fs).”, “at 1 μg/ml) and LPS (100 ng/ml)” for “50 nM)”
as §2, §3

[3] = system: PBMCs from Nod2fs patients; experiment: Cytokine response of PBMCs from Crohn's disease patients homozygous for the Nod2fs frameshift mutation; assay type: cell-based, human; details: 50 nM, overnight (18 hours)
Protocol: as §1
as §1, with “3.” for “2.”, “peptidoglycans” for “muramyl peptides”, “(Nod2fs).” for “(Nod2 fs).”, “at 1 μg/ml) and LPS (100 ng/ml)” for “50 nM)”
as §2, §3

## diaminopimelic acid (DAP)-containing muramyl tripeptide [M-TriDAP]
Nod2
  activation of Nod2 (NF-κB-driven luciferase reporter): failed to activate Nod2
[1]
  cytokine response (IL-1β, IL-10, TNFα, intracellular IL-1α) to muramyl peptides: efficiently stimulated; also recorded: globally as potent as MDP
[2]
  cytokine response (IL-1β, IL-10, TNFα, intracellular IL-1α) to muramyl peptides: efficiently stimulated; also recorded: globally as potent as MDP
[3]
  cytokine response (IL-1β, IL-10, TNFα, intracellular IL-1α) to muramyl peptides: failed to induce cytokine response; also recorded: unable to stimulate

## CC(=O)N[C@H]1C(O)O[C@H](CO)[C@@H](O)[C@@H]1O[C@H](C)C(=O)N[C@@H](C)C(=O)N[C@H](CCC(=O)O)C(N)=O (mixture of isomers) [MDP, muramyl dipeptide]
Nod2; HEK293T co-transfection, NF-κB read-out, 10 pmoles per milliliter of culture medium
  concentration at which activation of Nod2 was maximal: 10 nM
Nod2
  activation of Nod2 (NF-κB-driven luciferase reporter): activated Nod2 with similar efficiency
[1]
  cytokine response (IL-1β, IL-10, TNFα, intracellular IL-1α) to muramyl peptides: still reacted
[2]
  cytokine response (IL-1β, IL-10, TNFα, intracellular IL-1α) to muramyl peptides: potent activators
[3]
  cytokine response (IL-1β, IL-10, TNFα, intracellular IL-1α) to muramyl peptides: not stimulated

## M-TriLys
Nod2
  activation of Nod2 (NF-κB-driven luciferase reporter): activated Nod2 with similar efficiency
[1]
  cytokine response (IL-1β, IL-10, TNFα, intracellular IL-1α) to muramyl peptides: still reacted
[2]
  cytokine response (IL-1β, IL-10, TNFα, intracellular IL-1α) to muramyl peptides: potent activators
[3]
  cytokine response (IL-1β, IL-10, TNFα, intracellular IL-1α) to muramyl peptides: not stimulated
